From patent US12570704B2, “Functionally modified maytansinoids and compositions and methods of use thereof” (University of Georgia Research Foundation, Inc., priority 2019, dated 2026) come the findings set out here.

Data set [1] relates to H1299 cells. The experiment in a line: Clonogenic assay with X-ray irradiation, linear-quadratic model. In kind it is cell-based, human. As for the experimental part:
Around 3×10^5 of H1299 cells were plated in a series of 25 mm petri dishes in 5 mL of complete RMPI-1640 medium, and the cells were incubated for 24 h at 37° C. Once the cells were completely adhered to the bottom of the plate, the media was replaced with fresh RPMI-1640 containing DM1 or DM1-NO with a final concentration of 20 nM. After another 12 h of incubation, the cell cultures were irradiated by X-rays (320 kV) of different doses Immediately following the X-ray irradiation, the cell monolayers were trypsinized using 0.05% Trypsin/EDTA (Gibco, Life Technologies, USA). Single cells were collected and plated onto a 25 mm petri dish in 5 mL complete media (FIG. 1K). Each dish was then incubated for 21 days to allow colonies to form. After that, the media was removed and 0.5% crystal violet in 70% methanol was used to fixed and stain the existing colonies. The plates were sufficiently and carefully rinsed, and were dried at room temperature. Once dried, the colonies were counted manually under a microscope. When observed under the microscope, colonies of […] were said to be surviving colonies. The survival rate of these colonies was normalized to the plating efficiency of the untreated control cells. The mean and standard deviation of surviving colonies in each treatment group was calculated.
The potential of DM1-NO as a radiosensitizer was assessed by clonogenic assays. Briefly, DM1 or DM1-NO was incubated with H1299 cells, the cells were irradiated with X-rays (0-10 Gy), and the resulting cells were seeded onto a petri dish (FIG. 1K). Colonies consisting more than 50 cells after 3 weeks were counted, and the data fit to a linear-quadratic model (Table 3).

The nature of data set [2]: Stability of dry DM1-NO under ambient conditions (Griess assay). In kind it is physicochemical. The note with it: powder form, 2 weeks' storage at room temperature. The text has this:
FIGS. 1A and 1B are schemes illustrating how DM1-NO encapsulated PLGA-b-PEG nanoparticles (DM1-NO-NPs) can accumulate in tumors through the EPR effect. In the presence of radiation and/or reduced pH in endosomes/lysosomes, the S—N bond was broken, releasing DM1 and NO. DM1 inhibits microtubule assembly, arresting cells at the more radiosensitive G2/M phase. Meanwhile, NO can react with ROS to form radicals such as peroxynitrites, causing DNA and lipid damages. The combined effects enhance the efficacy of RT. […] Quantification was based on Greiss assay. PBS, cell culture medium (RPBI-1640), DM1, and DM1-NPs were tested as controls. FIG. 1D is a histogram showing the results of DLS analysis of DM1-NO-NPs in water. FIG. 1E is a plot showing the zeta potential of DM1-NO-NPs in water. FIG. 1F is a bar graph illustrating the stability of DM1-NO under ambient conditions. After synthesis, dry product of DM1-NO was kept at room temperature and the total amount of remaining NO was quantified using Griess assay on Day 0, 7, 14, and 21. FIG. 1G is plot illustrating the stability of DM1-NO in solutions. DM1-NO (20.09 μmol) was dissolved in PBS of different pH (5.5, 6.5, and 7.4). Time-dependent NO release was measured on a Sievers NOA 280i system, which assesses NO based on gas phase chemiluminescent reaction between NO and ozone. […]
For orientation: Nitrite, measured by Griess reagent, commonly stands in for NO production.

Data set [3] has as its system H1299 cells. Briefly: MTT cell viability assay, 72 h, in the presence of RT. In kind it is cell-based, human. As to conditions: Homo sapiens, NCI-H1299, with RT. Here is the method: FIGS. 7A-7E are plots showing the results of a cell cycle analysis, based on PI staining and assessed by flow cytometry. H1299 cells were incubated with PBS (7A), DM1 (7B), DM1-NO (7C), DM1-NPs (7D), or DM1-NO-NPs (20 nM, DM1 concentration) (7E) before analysis. […] FIG. 7G is a bar graphs showing Percentage of tubulin inhibition. Tubulin polymer was collected by centrifugation (35000×g for 1 h at 30° C.) and the amount of tubulin protein sediment was quantified by measuring protein concentration. ***, P<0.001. FIG. 7H is a line graph showing cell viability, tested with H1299 cells using 72-h MTT in the presence of RT. DM1, DM1-NO, and DM1-NO-NPs were studied.
The viability of the H1299 cells after different treatments was measured by (4,5-dimethythiazon-2-yl)-2,5-diphenyl tetrazolium bromide (MTT) assay using an Infinite M200 microplate reader (BioTek's Synergy™ Mx, USA). Around 3×10^3 cells per well were seeded into a 96-well plate and cultured overnight until the cells fully adhered to the bottom of the plate. The cells were treated with different treatment groups, including free drugs (DM1 and DM1-NO), and drug loaded nanoparticles (DM1-NPs and DM1-NO-NPs) for 72 h. […] The plate was gently shake for 5 min (instrument setup) to dissolve the formazan crystals, and the absorbance at 570 nm was recorded by a microplate reader. […]

Consider `COc1cc2cc(c1Cl)N(C)C(=O)C[C@@H](OC(=O)[C@H](C)N(C)C(=O)CCSN=O)[C@]1(C)OC1[C@H](C)[C@@H]1C[C@@](O)(NC(=O)O1)[C@H](OC)/C=C\C=C(/C)C2` (stereo partly drawn) [DM1-NO], for which, in the data set with H1299 cells [1] (20 nM, 12 h, X-rays 0-10 Gy), the “D10 (radiation dose at 10% fractional survival)” value amounted to 4.39 Gy, the “α (linear quadratic model best fit value)” value was 0.0765 and the “β (linear quadratic model best fit value)” value came to 0.0051. Moreover, the “dose modifying factor at 10% factional survival (DMF10)” value in the data set with H1299 cells [1] (relative to RT alone) stood at 1.23. Further, the compound degraded entry in data set [2] is given as “less than 10%”. In the data set on H1299 cells [3], the IC50 was found to be 14.9 nM.

Broadly, the IC50 is the concentration that gives 50% inhibition.
